This note sets out measurements from ChEMBL document CHEMBL4765266, “Design, synthesis and structure-activity relationships of 4-phenyl-1H-1,2,3-triazole phenylalanine derivatives as novel HIV-1 capsid inhibitors with promising antiviral activities” (Eur J Med Chem, 2020).

The source made the active and inactive calls. No cut-off for these calls is given here. Some results are limits rather than exact numbers.

The subject of data set [1] is Human immunodeficiency virus 1. The data set can be described thus: Antiviral activity against HIV1 NL4-3 infected in human TZM-bl cells assessed as reduction in virus induced cytopathic effect measured after 2 days by luciferase gene expression assay. The format is functional, organism-based. The settings on record: Human immunodeficiency virus 1, NL4-3, TZM-bl, 48 h.

The nature of data set [2]: in vitro. The following applies: human, TZM-bl cells.
Description: Selectivity index, ratio of CC50 for human TZM-bl cells to EC50 for HIV1 NL4-3 infected in human TZM-bl cells
Data set [3] has as its system TZM. Description: Cytotoxicity against in human TZM-bl cells assessed as reduction in cell viability measured after 2 days by CytoTox-Glo cytotoxicity assay. The settings on record: 48 h.
Data set [4] can be described thus: Binding affinity to HIV1 NL4-3 capsid protein monomer assessed as dissociation constant by SPR analysis. On the set-up: species or system Human immunodeficiency virus 1.
Data set [5] in a line: Binding affinity to HIV1 NL4-3 capsid protein hexamer assessed as dissociation constant by SPR analysis. On the set-up: species or system Human immunodeficiency virus 1.
For data set [6] the following is noted: human, microsomes, 1 h.
For data set [7] the following is noted: human, microsomes, 1 h. The source holds these as a separate data set.
Data set [8] is described as follows: Metabolic stability in human plasma assessed as parent compound remaining after 60 mins by LC/MS/MS method. The format is ADME, cell-free. The settings on record: 1 h.
In data set [9] the test system is Human immunodeficiency virus 1. The data set can be described thus: Antiviral activity against HIV1 NL4-3 Env-pseudotype virus in human U87/CD4/CCR5 cells assessed as reduction in p24 production at 10 uM by ELISA reader relative to control. The format is functional.
Data set [10] is described as follows: Metabolic stability in human plasma assessed as parent compound remaining after 10 mins by LC/MS/MS method. The data set is classed as ADME, cell-free.
The test system of data set [11] is Human immunodeficiency virus 1. Description: Antiviral activity against HIV1 NL4-3 Env-deficient pseudotype virus infected in human U87/CD4/CCR5 cells assessed by reduction in viral production in early stage measured after 48 hrs by luciferase activity based single-round infection assay. The format is functional, organism-based. The settings on record: Human immunodeficiency virus 1, NL4-3, U87/CD4/CCR5, 48 h.

Data set [12] relates to Human immunodeficiency virus 1. The data set can be described thus: Antiviral activity against HIV1 NL4-3 Env-deficient pseudotype virus infected in human U87/CD4/CCR5 cells assessed by reduction in viral production in late stage measured after 48 hrs by luciferase activity based single-round infection assay. The following applies: Human immunodeficiency virus 1, NL4-3, U87/CD4/CCR5, 48 h. The format is functional, organism-based.

A short description of data set [13]: Metabolic stability in human plasma assessed as parent compound remaining after 30 mins by LC/MS/MS method. The format is ADME, cell-free. The settings on record: 0.5 h.
Data set [14] in a line: Metabolic stability in human plasma assessed as parent compound remaining after 120 mins by LC/MS/MS method. The data set is classed as ADME, cell-free. The following applies: 2 h.
Data set [15] concerns U87/CD4/CCR5. The data set can be described thus: Induction of HIV1 NL4-3 capsid protein assembly at 50 uM measured every 1 min for 19 mins by Spectrophotometer method. The following applies: Human immunodeficiency virus 1.
Data set [16] in a line: in vitro. The following applies: human, liver microsomes.
Description: Metabolic stability in human liver microsomes assessed as parent compound remaining in presence of NADPH after 1 hr by LC/MS/MS method
Data set [17] relates to U87/CD4/CCR5. Description: Effect on HIV1 NL4-3 capsid protein assembly at 50 uM measured every 1 min for 19 mins by Spectrophotometer method. The settings on record: Human immunodeficiency virus 1.
The conditions of data set [18]: human, microsomes, 1 h. The source holds these as a separate data set.
Description: Metabolic stability in human liver microsomes assessed as parent compound remaining in absence of NADPH after 1 hr by LC/MS/MS method

For the compound `COc1ccc(N(C)C(=O)[C@H](Cc2ccccc2)NC(=O)Cn2cc(-c3ccccc3NC(C)=O)nn2)cc1`, the EC50 in data set [1] is 3.99 µM. Also, in [2], the selectivity ratio is over 4.76. In addition, the CC50 in data set [3] was over 19 µM.
On the same counts, the results for `COc1ccc(N(C)C(=O)[C@H](Cc2ccccc2)NC(=O)Cn2cc(-c3ccc(N)cc3)nn2)cc1` are 13.6 µM, over 1.51 and over 20.6 µM.
As for `COc1ccc(N(C)C(=O)[C@H](Cc2ccccc2)NC(=O)Cn2cc(-c3cccc(N)c3)nn2)cc1`, the EC50 in data set [1] is 3.3 µM. Further, the selectivity ratio in [2] was over 6.25. In addition, the Kd in data set [4] was 15.8 µM; in data set [5], 4 µM. Besides, the CC50 in data set [3] was over 20.6 µM.
Regarding `COc1ccc(N(C)C(=O)[C@H](Cc2ccccc2)NC(=O)Cn2cc(-c3cccc(NC(=O)c4ccccc4)c3)nn2)cc1`, in data set [1], the EC50 is 12.7 µM. For the same compound, in [2], the selectivity ratio was over 1.33. Further, the CC50 in data set [3] was over 17 µM.
In the case of `COc1ccc(N(C)C(=O)[C@H](Cc2ccccc2)NC(=O)Cn2cc(-c3ccccc3NC(=O)c3ccccc3)nn2)cc1`, the EC50 in [1] was determined as 3.74 µM. The selectivity ratio in data set [2] is over 4.54. Also, the CC50 in data set [3] is over 17 µM.
Consider `COc1ccc(N(C)C(=O)[C@H](Cc2ccccc2)NC(=O)Cn2cc(-c3ccc(NC(=O)c4ccccc4F)cc3)nn2)cc1`, for which the EC50 in [1] was 11.9 µM. Further, the selectivity ratio in data set [2] is over 1.39. Moreover, the cytotoxic concentration (CC50) in data set [3] is over 16.5 µM.
Consider `C[C@]12CC[C@H]3[C@@H](CCC4=CC(=O)CC[C@@]43C)[C@@H]1CC[C@@H]2O` [TESTOSTERONE], for which the CLH in data set [6] worked out at 188.3 µL/min/mg. The compound further yielded a t1/2 in data set [7] of 7.4 min.
As for `COc1ccc(N(C)C(=O)[C@H](Cc2ccccc2)NC(=O)Cn2cc(-c3cccc(NC(=O)c4ccc(C#N)cc4)c3)nn2)cc1`, the EC50 in data set [1] was 12.9 µM. Moreover, in data set [2], the selectivity ratio is over 1.27. Besides, in [3], the CC50 is over 16.3 µM.
On the same counts, the results for `COc1ccc(N(C)C(=O)[C@H](Cc2ccccc2)NC(=O)Cn2cc(-c3ccc(NC(=O)c4cccc(F)c4)cc3)nn2)cc1` are 12.7 µM, over 1.3 and over 16.5 µM.
For `COc1ccc(N(C)C(=O)[C@H](Cc2ccccc2)NC(=O)Cn2cc(-c3ccc(NC(=O)c4ccccc4)cc3)nn2)cc1`, the EC50 in data set [1] was determined as 12.9 µM. Also, the selectivity ratio in [2] is over 1.32. In [3], the CC50 is over 17 µM.
Turning to `Cc1[nH]c2ccccc2c1CC(=O)N[C@@H](Cc1ccccc1)C(=O)N(C)c1ccccc1`, the EC50 in data set [1] came to 0.28 µM. Besides, the Stabilty in data set [8] is reported as 86.5%; in [10], 87.3%; in [13], 83.4%; in [14] it was 85.6%. Besides, the inhibition result in data set [9] was “Active”. Also, the IC50 amounted to 0.056 µM in data set [11] and 0.23 µM in data set [12]. Moreover, in [4], the Kd came out at 2.4 µM. Besides, the CLH in data set [6] was 2403 µL/min/mg. Also, the outcome in data set [15] was Active. In addition, the CC50 in data set [3] was over 23.5 µM.
For `COc1ccc(N(C)C(=O)[C@H](Cc2ccccc2)NC(=O)Cn2cc(-c3ccccc3NC(=O)c3ccccc3OC)nn2)cc1`, the EC50 in data set [1] is 8.41 µM. Besides, the selectivity ratio in data set [2] was over 1.92. Further, in data set [3], the CC50 is over 16.2 µM.
In the case of `COc1ccc(N(C)C(=O)[C@H](Cc2ccccc2)NC(=O)Cn2cc(-c3ccc(NC(=O)c4ccc(F)cc4)cc3)nn2)cc1`, the EC50 in data set [1] was 13 µM. In addition, the selectivity ratio in data set [2] was over 1.27. Moreover, the CC50 in data set [3] was over 16.5 µM.
On the same counts, the results for `COc1ccc(N(C)C(=O)[C@H](Cc2ccccc2)NC(=O)Cn2cc(-c3ccccc3NC(=O)c3ccc(F)cc3)nn2)cc1` are 3.46 µM, over 4.76 and over 16.5 µM.
Consider `COc1ccc(N(C)C(=O)[C@H](Cc2ccccc2)NC(=O)Cn2cc(-c3ccccc3NC(=O)c3ccccc3F)nn2)cc1`, for which, in data set [1], the EC50 is 3.13 µM. Moreover, the Stabilty in [8] stood at 86.9%; in [10] it was 91.3%; in data set [13], 94.6%; in data set [14], 107.4%; in [18], 122.1%. For the same compound, the inhibition at 10 µM in data set [9] (Human immunodeficiency virus 1, NL4-3, U87/CD4/CCR5) worked out at 15%. Besides, the selectivity ratio in data set [2] is over 5.27. Moreover, the half-inhibitory concentration (IC50) in data set [11] was 8.18 µM; in data set [12], 0.32 µM. Moreover, the Kd in data set [4] amounted to 7.95 µM; in data set [5], 6.04 µM. In data set [16], this compound came in with a share remaining at 1 h of 0.3%. Besides, the CLH in [6] came to 1559.4 µL/min/mg. In addition, in data set [17], the outcome was inactive. The CC50 in data set [3] was over 16.5 µM. Besides, in [7], the t1/2 was found to be 0.9 min.
Turning to `COc1ccc(N(C)C(=O)[C@H](Cc2ccccc2)NC(=O)Cn2cc(-c3ccc(NC(=O)c4ccc(C#N)cc4)cc3)nn2)cc1`, in data set [1], the EC50 stood at 12.4 µM. Moreover, the selectivity ratio in [2] is over 1.32. Besides, the CC50 in [3] is over 16.3 µM.
`COc1ccc(N(C)C(=O)[C@H](Cc2ccccc2)NC(=O)Cn2cc(-c3ccccc3NC(=O)c3cccc(F)c3)nn2)cc1`: the EC50 in [1] turned out to be 3.3 µM. Moreover, the selectivity ratio in data set [2] is over 4.99. The values for the Kd in data set [4] and in data set [5] were 6.8 µM and 4.99 µM, respectively. Also, the CC50 in data set [3] was over 16.5 µM.
In the case of `COc1ccc(N(C)C(=O)[C@H](Cc2ccccc2)NC(=O)Cn2cc(-c3cccc(NC(=O)c4ccccc4F)c3)nn2)cc1`, in data set [1], the EC50 came out at 13.5 µM. The selectivity ratio in data set [2] was over 1.22. For the same compound, in data set [3], the CC50 was over 16.5 µM.
The matching figures for `COc1ccc(N(C)C(=O)[C@H](Cc2ccccc2)NC(=O)Cn2cc(-c3cccc(NC(=O)c4cccc(F)c4)c3)nn2)cc1`: 9.56 µM, over 1.72 and over 16.5 µM.
The matching figures for `COc1ccc(N(C)C(=O)[C@H](Cc2ccccc2)NC(=O)Cn2cc(-c3ccccc3N)nn2)cc1`: 3.92 µM, over 5.27 and over 20.6 µM.
In the case of `CC(C)[N+](C)(CCOC(=O)C1c2ccccc2Oc2ccccc21)C(C)C.[Br-]` [PROPANTHELINE BROMIDE], the Stabilty is 0.6% in data set [8], 47.7% in [10] and 9.1% in data set [13].
As for `COc1ccc(N(C)C(=O)[C@H](Cc2ccccc2)NC(=O)Cn2cc(-c3cccc(NC(C)=O)c3)nn2)cc1`, the EC50 in [1] worked out at 14.8 µM. In addition, in data set [2], the selectivity ratio is over 1.28. Further, the CC50 in [3] was over 19 µM.
